Results on twelve molecules are retold here after ChEMBL document CHEMBL1201862, “PubChem BioAssay data set” (2004).

SMILES strings stand for the structures. The source made the active and inactive calls.

In assay [1] the target is T1, Runt-related transcription factor 1/Core-binding factor subunit beta (Homo sapiens, UniProt Q01196+Q13951). The experiment in a line: disruptors of Runt domain/CBFb-SMMHC interaction – biochemical, FRET, Cerulean-Runt, Venus-CBFb-SMMHC, uHTS, […] (AID 1434). It counts as protein assay.
The target of assay [2] is T1, Runt-related transcription factor 1/Core-binding factor subunit beta. Briefly: Runt domain/CBFb-SMMHC interaction disruptors – biochemical, TR-FRET (AID 1438). The format is protein assay. For orientation: TR-FRET usually uses a lanthanide donor and a delayed reading to cut background.
The subject of another assay is H9c2. The experiment in a line: cells. The format is functional, cell-based. The conditions noted are these: Rattus norvegicus, H9c2, Myocardium.
For assay [3], the target named is T2, Voltage-gated N-type calcium channel alpha-1B subunit/Amyloid beta A4 precursor protein-binding family A member 1 (Homo sapiens, UniProt Q00975+Q02410). It counts as protein assay.
T2 sequence (Q00975 whole entry): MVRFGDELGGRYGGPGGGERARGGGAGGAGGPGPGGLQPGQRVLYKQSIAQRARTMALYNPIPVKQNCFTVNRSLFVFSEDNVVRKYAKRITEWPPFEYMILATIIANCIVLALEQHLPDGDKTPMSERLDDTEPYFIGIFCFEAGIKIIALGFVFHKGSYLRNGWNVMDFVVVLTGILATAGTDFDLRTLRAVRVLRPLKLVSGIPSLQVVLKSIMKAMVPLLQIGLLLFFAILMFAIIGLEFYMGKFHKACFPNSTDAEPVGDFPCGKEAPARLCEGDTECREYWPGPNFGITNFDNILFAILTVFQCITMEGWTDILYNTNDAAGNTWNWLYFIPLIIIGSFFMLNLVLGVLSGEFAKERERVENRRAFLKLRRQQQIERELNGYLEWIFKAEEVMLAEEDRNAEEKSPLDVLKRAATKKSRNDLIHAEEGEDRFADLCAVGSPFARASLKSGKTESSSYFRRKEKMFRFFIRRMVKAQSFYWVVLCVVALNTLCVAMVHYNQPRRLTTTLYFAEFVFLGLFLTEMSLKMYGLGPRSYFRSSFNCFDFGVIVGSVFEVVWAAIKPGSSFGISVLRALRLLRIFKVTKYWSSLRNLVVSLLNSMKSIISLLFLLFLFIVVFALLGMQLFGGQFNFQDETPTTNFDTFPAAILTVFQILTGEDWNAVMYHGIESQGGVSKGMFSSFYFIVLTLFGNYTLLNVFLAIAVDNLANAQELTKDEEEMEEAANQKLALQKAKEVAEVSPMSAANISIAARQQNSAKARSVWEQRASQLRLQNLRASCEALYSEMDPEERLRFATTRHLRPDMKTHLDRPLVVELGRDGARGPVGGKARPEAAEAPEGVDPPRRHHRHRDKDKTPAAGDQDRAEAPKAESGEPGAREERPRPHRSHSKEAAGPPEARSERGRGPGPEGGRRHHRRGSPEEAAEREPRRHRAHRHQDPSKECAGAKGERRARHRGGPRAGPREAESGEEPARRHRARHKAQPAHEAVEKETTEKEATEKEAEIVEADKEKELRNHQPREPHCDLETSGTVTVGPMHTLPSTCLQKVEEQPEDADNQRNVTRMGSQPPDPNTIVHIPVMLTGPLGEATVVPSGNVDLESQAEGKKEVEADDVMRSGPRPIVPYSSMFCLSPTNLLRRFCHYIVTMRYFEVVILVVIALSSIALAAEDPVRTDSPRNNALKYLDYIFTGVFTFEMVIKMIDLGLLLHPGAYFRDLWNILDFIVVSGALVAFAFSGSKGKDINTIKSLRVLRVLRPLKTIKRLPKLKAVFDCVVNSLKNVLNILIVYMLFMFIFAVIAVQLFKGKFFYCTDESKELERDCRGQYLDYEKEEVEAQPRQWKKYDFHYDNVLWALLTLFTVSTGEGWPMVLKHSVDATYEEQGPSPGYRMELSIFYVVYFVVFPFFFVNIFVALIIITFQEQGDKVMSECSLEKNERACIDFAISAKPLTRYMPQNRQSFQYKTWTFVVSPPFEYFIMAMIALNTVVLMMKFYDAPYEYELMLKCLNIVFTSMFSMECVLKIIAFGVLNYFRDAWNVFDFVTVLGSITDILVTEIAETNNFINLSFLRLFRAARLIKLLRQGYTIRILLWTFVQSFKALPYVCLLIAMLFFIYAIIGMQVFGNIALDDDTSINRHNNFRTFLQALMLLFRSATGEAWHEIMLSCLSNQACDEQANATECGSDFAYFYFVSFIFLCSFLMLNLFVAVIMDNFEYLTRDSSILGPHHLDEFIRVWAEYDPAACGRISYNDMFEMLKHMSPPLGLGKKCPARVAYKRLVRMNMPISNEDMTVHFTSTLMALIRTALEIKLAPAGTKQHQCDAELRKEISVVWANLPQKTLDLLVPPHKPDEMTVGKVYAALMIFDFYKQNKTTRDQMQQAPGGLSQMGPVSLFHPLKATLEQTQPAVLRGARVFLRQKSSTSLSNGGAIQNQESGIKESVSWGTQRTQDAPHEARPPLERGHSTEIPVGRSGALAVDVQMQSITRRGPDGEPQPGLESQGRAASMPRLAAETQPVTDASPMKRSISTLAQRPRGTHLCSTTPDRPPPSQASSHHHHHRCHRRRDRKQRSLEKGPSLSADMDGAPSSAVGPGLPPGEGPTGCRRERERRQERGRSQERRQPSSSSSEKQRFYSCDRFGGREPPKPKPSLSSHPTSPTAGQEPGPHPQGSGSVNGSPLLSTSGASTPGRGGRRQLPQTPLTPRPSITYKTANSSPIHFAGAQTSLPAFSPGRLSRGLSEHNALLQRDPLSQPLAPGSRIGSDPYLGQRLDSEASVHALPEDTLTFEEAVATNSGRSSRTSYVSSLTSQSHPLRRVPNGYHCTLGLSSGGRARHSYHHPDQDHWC
T2 sequence (Q02410 whole entry): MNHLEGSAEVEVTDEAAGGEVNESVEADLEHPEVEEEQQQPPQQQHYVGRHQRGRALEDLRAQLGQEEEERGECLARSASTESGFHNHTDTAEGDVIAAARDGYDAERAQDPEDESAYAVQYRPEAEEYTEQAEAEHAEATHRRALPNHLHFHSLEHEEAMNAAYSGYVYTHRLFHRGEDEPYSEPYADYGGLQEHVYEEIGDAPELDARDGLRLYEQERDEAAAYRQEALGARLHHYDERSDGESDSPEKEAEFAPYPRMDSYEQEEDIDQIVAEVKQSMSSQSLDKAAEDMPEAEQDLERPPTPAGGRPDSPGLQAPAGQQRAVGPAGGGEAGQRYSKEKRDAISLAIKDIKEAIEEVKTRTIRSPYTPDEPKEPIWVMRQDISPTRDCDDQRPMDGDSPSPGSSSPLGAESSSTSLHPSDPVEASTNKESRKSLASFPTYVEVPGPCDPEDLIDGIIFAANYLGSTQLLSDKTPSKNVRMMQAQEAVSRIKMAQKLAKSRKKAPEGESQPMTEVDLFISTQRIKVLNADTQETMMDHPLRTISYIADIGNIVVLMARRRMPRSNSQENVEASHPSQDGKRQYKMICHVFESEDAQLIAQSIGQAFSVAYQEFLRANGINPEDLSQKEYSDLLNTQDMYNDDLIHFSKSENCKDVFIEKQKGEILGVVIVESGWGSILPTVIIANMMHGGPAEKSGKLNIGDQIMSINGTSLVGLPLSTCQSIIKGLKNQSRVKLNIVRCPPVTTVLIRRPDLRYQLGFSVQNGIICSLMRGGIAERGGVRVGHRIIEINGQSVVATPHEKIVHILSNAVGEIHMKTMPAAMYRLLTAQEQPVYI
The target in assay [4] is Induced myeloid leukemia cell differentiation protein Mcl-1 (Homo sapiens, UniProt Q07820). The format is functional.
Assay [5] deals with T2, Voltage-gated N-type calcium channel alpha-1B subunit/Amyloid beta A4 precursor protein-binding family A member 1. The format is protein assay. The source holds these as a separate data set.
Another assay concerns the target Large T antigen (Simian virus 40, UniProt P03070). The format is functional, Betapolyomavirus macacae.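 Further: Confirmatory-stage PubChem screen for compounds that inhibit SV40 T antigen.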
Assay [6] has as its target T3, Tyrosine-protein phosphatase non-receptor type 7 (Homo sapiens, UniProt P35236).
T3 sequence (P35236 whole entry): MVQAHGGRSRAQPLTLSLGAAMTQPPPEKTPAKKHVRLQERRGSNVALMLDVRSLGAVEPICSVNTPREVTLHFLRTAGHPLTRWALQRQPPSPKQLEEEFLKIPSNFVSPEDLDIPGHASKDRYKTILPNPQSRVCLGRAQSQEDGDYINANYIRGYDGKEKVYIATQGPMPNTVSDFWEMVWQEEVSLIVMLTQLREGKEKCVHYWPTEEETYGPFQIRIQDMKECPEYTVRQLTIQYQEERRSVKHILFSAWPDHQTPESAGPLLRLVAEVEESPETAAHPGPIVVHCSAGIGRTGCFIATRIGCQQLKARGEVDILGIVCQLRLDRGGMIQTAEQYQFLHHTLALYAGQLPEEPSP
Briefly: SAR analysis of chemical inhibitors of HePTP using a Fluorescent assay - Set 2. [Related pubchem assays (depositor defined):AID1059, AID1077, AID1661, AID2085, AID521]. It counts as functional.

Assay [7] concerns the target Dual specificity protein phosphatase 3 (Homo sapiens, UniProt P51452). The experiment in a line: SAR VHR1 Fluorescent Assay for In Vitro dose response studies Set 2. [Related pubchem assays (depositor defined):AID1654, AID1661, AID1878]. The format is functional.
In assay [8] the target is Microphthalmia-associated transcription factor (Homo sapiens, UniProt O75030). Briefly: reducers of TRPM1 reporter luminescence, concentration series – cell-based, SK-MEL-5, cherry-picked, set 3, MITF inhibitor project, dose response (AID 493073).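 Further: SK-MEL-5 melanoma cells with luciferase driven by the MITF target TRPM1 promoter.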 It counts as functional.
Assay [9] has as its target G-protein coupled receptor 55 (Homo sapiens, UniProt Q9Y2T6). The experiment in a line: selective activators of receptor GPR55 – imaging, U2OS cells, beta-arrestin-GFP redistribution, primary screen (AID 1961). It counts as functional.
Assay [10] in a line: NIH3T3 cell viability loss – ATP luminescence, mouse fibroblasts, counter-screen, dose response (AID 2010).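 Further: cells exposed to compound for about 90 hours before reading.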 It counts as functional, cell-based. Background: Counterscreens check selectivity or assay interference.
Assay [11] concerns the target T4, Heat shock factor protein 1 (Mus musculus, UniProt P38532).
T4 sequence (P38532 whole entry): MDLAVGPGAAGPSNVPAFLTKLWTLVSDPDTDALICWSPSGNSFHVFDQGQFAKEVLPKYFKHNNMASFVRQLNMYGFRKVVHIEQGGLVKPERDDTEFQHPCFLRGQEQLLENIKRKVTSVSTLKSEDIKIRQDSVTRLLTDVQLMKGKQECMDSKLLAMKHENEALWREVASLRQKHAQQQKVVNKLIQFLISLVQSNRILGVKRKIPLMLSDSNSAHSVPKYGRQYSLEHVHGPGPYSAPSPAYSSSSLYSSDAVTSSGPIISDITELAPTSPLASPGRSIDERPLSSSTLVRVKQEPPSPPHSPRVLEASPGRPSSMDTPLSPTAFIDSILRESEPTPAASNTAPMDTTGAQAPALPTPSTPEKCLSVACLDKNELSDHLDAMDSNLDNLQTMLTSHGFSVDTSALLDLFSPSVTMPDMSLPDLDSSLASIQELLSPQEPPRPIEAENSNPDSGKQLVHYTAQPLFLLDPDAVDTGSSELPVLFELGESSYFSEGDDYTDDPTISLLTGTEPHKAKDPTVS
The experiment in a line: decrease of HSF1-responsive luciferase luminescence – cell-based, NIH3T3, dose retest, confirmation (AID 2382).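 Further: NIH3T3 fibroblasts with HSF1-driven luciferase reporter stressed by proteasome inhibitor MG132; luminescence from HSF1-driven luciferase expression after 8 hours of MG132 stress.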 The format is functional.

Assay [12] can be described thus: Trypanosoma cruzi growth suppression in host cells – NIH3T3 host cells, beta-gal luminescence, confirmation (AID 2044).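 Further: intracellular parasites grown in NIH/3T3 mouse fibroblasts as host cells; luminescent beta-galactosidase reporter signal from transgenic T. cruzi replicating inside host cells; inhibitors lower the luminescence signal.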 It counts as functional, cell-based.
In assay [13] the target is T5, Polyadenylate-binding protein 1 (Homo sapiens, UniProt P11940). The experiment in a line: MLLE domain peptide-binding blockers, IC50 – biochemical, fluorescence polarization, FITC-PAM2 peptide, dose response (AID 602259). It counts as functional. Conditions: read-out: IC50_Mean. On the technique in general: Polarisation of emitted light reports the rotation of a fluorescent probe.
T5 sequence (P11940 whole entry, the tested form may be a part): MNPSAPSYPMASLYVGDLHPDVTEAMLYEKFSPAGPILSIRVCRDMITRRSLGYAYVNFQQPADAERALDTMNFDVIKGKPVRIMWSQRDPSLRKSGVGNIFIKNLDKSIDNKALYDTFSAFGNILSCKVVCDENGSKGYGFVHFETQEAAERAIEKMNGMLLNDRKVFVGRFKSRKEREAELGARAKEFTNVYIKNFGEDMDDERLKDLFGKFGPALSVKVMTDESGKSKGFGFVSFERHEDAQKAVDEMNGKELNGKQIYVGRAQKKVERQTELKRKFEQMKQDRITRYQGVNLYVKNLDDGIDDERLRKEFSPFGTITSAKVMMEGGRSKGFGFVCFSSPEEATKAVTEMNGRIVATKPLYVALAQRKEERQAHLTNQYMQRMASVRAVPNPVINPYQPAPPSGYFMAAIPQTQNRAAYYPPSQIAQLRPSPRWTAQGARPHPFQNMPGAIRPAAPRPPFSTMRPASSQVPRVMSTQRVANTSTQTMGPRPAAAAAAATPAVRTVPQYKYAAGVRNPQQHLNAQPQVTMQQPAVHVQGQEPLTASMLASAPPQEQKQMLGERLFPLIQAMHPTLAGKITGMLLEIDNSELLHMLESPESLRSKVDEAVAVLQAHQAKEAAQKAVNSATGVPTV

For assay [14], the target named is T4, Heat shock factor protein 1. The experiment in a line: enhancement of HSF1-driven luciferase signal – cell-based, NIH3T3, luminescence, dose retest, confirmation (AID 435004).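 Further: stress induced by proteasome inhibitor MG132 added 30 min after compound; luciferase reporter driven by HSF1 response element in NIH3T3 cells; actives raise luminescence as potentiators of the MG132 stress response.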 The format is functional.
For assay [15], the target named is E3 ubiquitin-protein ligase Mdm2 (Homo sapiens, UniProt Q00987). Briefly: MDM2-luc reporter signal enhancers, multi-concentration potency testing, MDM2 ubiquitin-protein ligase inhibitor program, whole-cell format, luminescence detection, 384-well microplate (AID 1394).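 Further: MDM2 E3 inhibitors raise luminescence so EC50 is for signal enhancement.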 It counts as functional.
The target of assay [16] is T5, Polyadenylate-binding protein 1. Briefly: MLLE binding blockers, Cy5 peptide tracer – biochemical, fluorescence polarization, Cy5-PAM2 peptide, secondary, miRNA deadenylation inhibitor project, dose response (AID 602260). The format is functional. The conditions noted are these: read-out: IC50_Mean.
The target of another assay is Coagulation factor XII (Homo sapiens, UniProt P00748). It counts as functional.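 Further: activated factor XIIa alpha cleaving a fluorogenic AMC peptide substrate; inhibitor potency from loss of enzyme activity.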
Coagulation factor XII, sequence (P00748 20-372 limits assumed): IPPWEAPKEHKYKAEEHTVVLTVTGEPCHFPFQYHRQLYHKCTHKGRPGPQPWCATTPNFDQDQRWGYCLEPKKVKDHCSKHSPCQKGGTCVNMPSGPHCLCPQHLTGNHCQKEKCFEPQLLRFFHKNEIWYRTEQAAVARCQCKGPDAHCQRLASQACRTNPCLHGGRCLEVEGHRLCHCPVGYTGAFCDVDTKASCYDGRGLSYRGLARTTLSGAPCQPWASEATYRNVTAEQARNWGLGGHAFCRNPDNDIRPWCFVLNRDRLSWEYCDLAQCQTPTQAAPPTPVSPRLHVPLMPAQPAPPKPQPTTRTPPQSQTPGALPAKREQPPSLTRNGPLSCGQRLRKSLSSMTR
Coagulation factor XII, sequence (P00748 373-615 limits assumed): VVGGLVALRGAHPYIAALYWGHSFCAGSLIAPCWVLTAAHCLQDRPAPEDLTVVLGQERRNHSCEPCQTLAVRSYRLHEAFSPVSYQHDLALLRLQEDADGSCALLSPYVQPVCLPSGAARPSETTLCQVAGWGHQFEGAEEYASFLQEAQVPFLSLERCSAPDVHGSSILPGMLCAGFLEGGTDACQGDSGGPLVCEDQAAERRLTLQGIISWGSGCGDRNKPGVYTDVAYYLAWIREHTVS
Assay [17] is described as follows: HEK-293T viability loss after treatment – luminescence, T-cell screen hits, cytotoxicity control for TCR NF-kB inhibitor project, dose response (AID 489026).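 Further: cells exposed to compound about 14 hours before the viability readout.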 The format is functional, cell-based.
The target of assay [18] is Eukaryotic translation initiation factor 4E (Mus musculus, UniProt P63073). Briefly: blockers of eIF4G binding by eIF4E – biochemical, TR-FRET, dose response (AID 855).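 Further: potency for disrupting eIF4E binding to eIF4GI seen as loss of FRET.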 It counts as functional.
For assay [19], the target named is DNA dC->dU-editing enzyme APOBEC-3G (Homo sapiens, UniProt Q9HC16). The experiment in a line: Dose Response confirmation of small molecule APOBEC3G DNA Deaminase Inhibitors via a fluorescence-based single-stranded DNA deaminase assay. [Related pubchem assays (depositor defined):AID493012, AID493028]. The format is functional.
For assay [20], the target named is DNA dC->dU-editing enzyme APOBEC-3A (Homo sapiens, UniProt P31941). Briefly: A3A deaminase inhibition for selectivity – biochemical, dose response (AID 504722). It counts as functional.
For the next assay, the target named is Paired box protein Pax-8 (Homo sapiens, UniProt Q06710). The experiment in a line: PAX8 transcriptional activity inhibition in RMG-I – RMG-I cells, luciferase, cherry-pick, dose response (AID 687027).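 Further: luciferase reporter driven by Pax8 target thyroperoxidase promoter measured by SteadyGlo luminescence.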 It counts as functional, cell-based.

Dual specificity protein phosphatase 3, sequence (P51452 whole entry): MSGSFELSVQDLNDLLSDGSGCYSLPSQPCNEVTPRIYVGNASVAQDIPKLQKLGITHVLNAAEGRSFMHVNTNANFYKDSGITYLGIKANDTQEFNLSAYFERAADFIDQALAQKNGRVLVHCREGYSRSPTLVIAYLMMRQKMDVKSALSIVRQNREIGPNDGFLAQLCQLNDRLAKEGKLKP
G-protein coupled receptor 55, sequence (Q9Y2T6 whole entry): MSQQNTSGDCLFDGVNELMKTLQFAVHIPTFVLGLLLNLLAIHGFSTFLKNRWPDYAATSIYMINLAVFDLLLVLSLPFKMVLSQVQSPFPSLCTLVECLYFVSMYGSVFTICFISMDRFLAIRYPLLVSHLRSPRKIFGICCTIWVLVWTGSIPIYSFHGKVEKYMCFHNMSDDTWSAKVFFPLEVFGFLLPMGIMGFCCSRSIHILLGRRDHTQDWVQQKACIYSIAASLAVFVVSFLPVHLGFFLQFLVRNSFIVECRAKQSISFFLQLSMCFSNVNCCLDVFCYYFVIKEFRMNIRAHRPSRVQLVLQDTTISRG

With `CC(C)c1cc(N2CCN(C(=O)c3ccco3)CC2)n2c(nc3ccccc32)c1C#N`, the IC50 in assay [1] was > 100 µM (inactive); in [2], > 100 µM (inactive); in the assay on H9c2, 15.5 µM (active).
As to `COc1ccc(CC(=O)n2[nH]c(=O)ccc2=O)cc1OC`, the IC50 in assay [3] is 1.53 µM (active); in [4] it was 18.2 µM (active); in assay [5] it was 46.1 µM (active); on Large T antigen, > 100 µM (active).
For `NS(=O)(=O)c1ccc(NC(=S)N2CCN(c3ccc(Cl)c(Cl)c3)CC2)cc1`, the IC50 in assay [6] and in assay [7] was > 100 µM (inactive) throughout.
For orientation: AC50 means the concentration giving half of the maximal activity seen. By EC50 is commonly meant the concentration at which the effect is half-maximal. With `COc1ccc(C(=O)/C=C/C(=O)N(CC(=O)NC2CCCCC2)Cc2ccc(F)cc2)c(O)c1`, the AC50 in assay [8] is 5.45 µM (active). Moreover, the EC50 in [9] is > 32 µM (inactive); in assay [10] it was > 60 µM (not active); in [11], 5.29 µM (active); in assay [12], 1.61 µM (active).
Turning to `Cc1cc(C)nc(S/C=C/C(=O)c2ccccc2F)n1`, the IC50 in assay [13] and in assay [16] was > 66 µM (inactive) in each case. Besides, the EC50 in assay [14] was 14.7 µM (active); in assay [15], 1 µM (active). For the same molecule, the AC50 in assay [8] was 5.37 µM (active).
With `Cc1ccc(-n2c(N)c(C(=O)N3CCCCC3)sc2=S)cc1`, the IC50 was > 100 µM (inactive) in assay [6] and 76.5 µM (active) in [7].
Take `CC1(C)CC(=O)C=C(NNC(=O)c2ccccc2O)C1`: the IC50 on Coagulation factor XII was > 50 µM (inactive).
As to `Nc1nc(-c2ccccc2)cc(N2CCCCC2)n1`, the IC50 in assay [17] is > 80 µM (inactive).
Regarding `COCc1c(N)c(C)nc(Cl)c1C#N`, the IC50 in [3] is > 50 µM (inactive); in assay [18], 50 µM (inactive); in [5], 13.9 µM (active); in assay [19], 13.3 µM (active).
With `Sc1nnc(-c2ccco2)n1-c1ccc(Br)cc1`, the IC50 is > 100 µM (inactive) in assay [20] and 1.5 µM (active) in assay [19].
Take `CCCN(CCC)Cc1c(C(=O)N/N=C/C(C)=C\c2ccco2)nnn1-c1nonc1N`: on Paired box protein Pax-8, the AC50 was 2.86 µM (active). Besides, in assay [9], the EC50 was 0.625 µM (active).
Take `COc1ccc(OC)c(/C=N/Nc2cc(C)nc(N3CCOCC3)n2)c1`: the IC50 on Coagulation factor XII was > 50 µM (inactive).
